ChEMBL document CHEMBL1201862, “PubChem BioAssay data set” (2004)
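Method: 48-hour compound exposure of cells in 96-well plates, five concentrations, linear interpolation of endpoints. At the GI50, growth is halved.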 Active and inactive are the calls of the source. Cut-off read from the data, not from the text of the source: active = GI50 up to about 1.1 µM and inactive = higher.

How the values were obtained:
Experiment in all cases: DTP human tumour cell line panel, 48 h
Malme-3M = test system: Malme-3M
UO-31 = test system: UO-31
HCC 2998 = test system: HCC 2998
OVCAR-4 = test system: OVCAR-4
HOP-92 = test system: HOP-92
HCT-116 = test system: HCT-116
RXF 393 = test system: RXF 393
KM12 = test system: KM12
SF-539 = test system: SF-539
TK-10 = test system: TK-10
HCT-15 = test system: HCT-15
SN12C = test system: SN12C
OVCAR-5 = test system: OVCAR-5
SW-620 = test system: SW-620
HT-29 = test system: HT-29
SK-MEL-5 = test system: SK-MEL-5
SR = test system: SR
SNB-19 = test system: SNB-19
EKVX = test system: EKVX
CAKI-1 = test system: CAKI-1

Measured: GI50

Nc1nc(=O)[nH]cc1F [FLUCYTOSINE]
> 100 µM: HCT-15
inactive: Malme-3M > 100 µM | UO-31 > 100 µM | HCC 2998 > 100 µM | OVCAR-4 > 100 µM | HOP-92 > 100 µM | HCT-116 > 100 µM | RXF 393 > 100 µM | KM12 > 100 µM | SF-539 > 100 µM | TK-10 > 100 µM | SN12C > 100 µM | OVCAR-5 > 100 µM | SW-620 > 100 µM | HT-29 > 100 µM | SK-MEL-5 > 100 µM | SR > 100 µM | SNB-19 > 100 µM | EKVX > 100 µM | CAKI-1 > 100 µM

COc1cc2c(oc(=O)c3cc4cc([Si](C)(C)C)oc4c(OC)c32)c2cccc(O)c12
inactive: Malme-3M > 100 µM | UO-31 > 100 µM | HCC 2998 > 100 µM | OVCAR-4 > 100 µM | HOP-92 > 100 µM | HCT-116 > 100 µM | RXF 393 > 100 µM | KM12 > 100 µM | SF-539 > 100 µM | TK-10 > 100 µM | SN12C > 100 µM | OVCAR-5 > 100 µM | SW-620 > 100 µM | HT-29 > 100 µM | SK-MEL-5 > 100 µM | SR > 100 µM | SNB-19 > 100 µM | EKVX > 100 µM | CAKI-1 > 100 µM
> 100 µM: HCT-15

CC(=O)Nc1ccc2oc(=O)c3ccccc3c2c1
inactive: Malme-3M > 100 µM | UO-31 > 100 µM | HCC 2998 > 100 µM | OVCAR-4 > 100 µM | HOP-92 > 100 µM | HCT-116 > 100 µM | RXF 393 > 100 µM | KM12 > 100 µM | SF-539 > 100 µM | SN12C > 100 µM | OVCAR-5 > 100 µM | SW-620 > 100 µM | HT-29 > 100 µM | SK-MEL-5 > 100 µM | SR > 100 µM | SNB-19 > 100 µM | EKVX > 100 µM | CAKI-1 > 100 µM
> 100 µM: HCT-15

C=C1C(=O)O[C@@H]2/C=C(\C)CC/C=C(\C)CC[C@@]12O
2.82 µM: HCT-15
active: RXF 393 0.185 µM | SW-620 1.04 µM
inactive: Malme-3M 1.53 µM | UO-31 1.48 µM | HCC 2998 5.31 µM | OVCAR-4 1.98 µM | HOP-92 1.78 µM | HCT-116 2.42 µM | KM12 8.95 µM | SF-539 1.2 µM | TK-10 1.73 µM | SN12C 2.44 µM | OVCAR-5 11.4 µM | HT-29 2.99 µM | SK-MEL-5 4.59 µM | SR 2.42 µM | SNB-19 5.43 µM | EKVX 4.13 µM | CAKI-1 1.35 µM
